Measurements reported in US9850283B2, “Macrocyclic inhibitors of the PD-1/PD-L1 and CD80(B7-1)/PD-L1 protein/protein interactions” (BRISTOL-MYERS SQUIBB COMPANY, priority 2013, dated 2017).
Read-outs that look alike come from different tables or passages of the source. Positions of bridges follow the written chain, without caps; N, C: chain ends. Non-standard residues stand in square brackets, D forms with d. Residues, ends and D or L forms follow the SMILES beside them. ξ: configuration not given here. *: point of attachment. Trp(5-Cl) = N[C@@H](Cc1c[nH]c2ccc(Cl)cc12)C(=O)O; Ala(4-thiazolyl) = N[C@@H](Cc1cscn1)C(=O)O; Bip = N[C@@H](Cc1ccc(-c2ccccc2)cc1)C(=O)O; Cyclobutanecarbonyl = O=C(C1CCC1)*; cisHyp = O=C(O)[C@@H]1C[C@H](O)CN1; NMeF = CN[C@@H](Cc1ccccc1)C(=O)O; dNMeNle = CCCC[C@@H](NC)C(=O)O; NMeNle = CCCC[C@H](NC)C(=O)O; NMeM = CN[C@@H](CCSC)C(=O)O; NMeS = CN[C@@H](CO)C(=O)O; NMeA = CN[C@@H](C)C(=O)O; Orn = NCCC[C@H](N)C(=O)O; dDap = NC[C@@H](N)C(=O)O; Dab = NCC[C@H](N)C(=O)O; Dap = NC[C@H](N)C(=O)O; ξP = O=C(O)C1CCCN1; Bn = c1ccc(C*)cc1; ξC = NC(CS)C(=O)O; Sar = CNCC(=O)O

Legend:
[1] = target: T1, Human PD-L1/PD-1 (Homo sapiens, UniProt Q9NZQ7); experiment: HTRF PD-1-Ig/PD-L1-His binding assay (human PD-L1)
T1 construct: made in house; host or cells: HEK293T
T1 sequence (Q9NZQ7 with tags, fused parts or gaps): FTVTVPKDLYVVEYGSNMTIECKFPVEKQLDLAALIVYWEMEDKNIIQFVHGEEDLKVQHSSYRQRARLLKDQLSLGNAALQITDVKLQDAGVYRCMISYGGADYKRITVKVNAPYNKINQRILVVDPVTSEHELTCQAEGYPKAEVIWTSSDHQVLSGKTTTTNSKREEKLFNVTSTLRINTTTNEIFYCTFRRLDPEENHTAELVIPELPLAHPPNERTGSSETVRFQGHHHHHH
Outline: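 Readout: time-resolved FRET between Eu cryptate-labeled anti-Ig (1 nM final) and APC-labeled anti-His (20 nM final) antibodies. These detect interaction of Fc-fused PD-1 with His-tagged human PD-L1 in dPBS containing 0.1% BSA and 0.05% Tween-20.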

[2] = target: T2, LK35.2-hPD-L1 cells / PE-labeled PD-1-Ig (Homo sapiens, UniProt Q9NZQ7); experiment: LK35.2-hPD-L1 cell binding high-content screening assay; assay type: cell-based
T2 construct: expressed in transfected cells; host or cells: LK35.2 mouse B cell line
T2 sequence (Q9NZQ7 19-290): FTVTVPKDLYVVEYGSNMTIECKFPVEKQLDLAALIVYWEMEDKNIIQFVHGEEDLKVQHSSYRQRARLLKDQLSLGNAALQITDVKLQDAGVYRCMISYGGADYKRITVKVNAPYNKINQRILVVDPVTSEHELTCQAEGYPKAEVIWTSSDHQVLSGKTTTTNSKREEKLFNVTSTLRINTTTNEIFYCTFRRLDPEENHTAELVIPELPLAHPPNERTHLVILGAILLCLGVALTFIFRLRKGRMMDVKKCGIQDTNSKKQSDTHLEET
Outline: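 Using overnight-cultured LK35.2-hPD-L1 mouse B cells, compound was co-incubated with phycoerythrin-tagged human PD-1-Ig (final 1 nM) at 37 °C for one hour. Unbound label was removed by triple dPBS washing prior to high-content image acquisition and analysis.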

[3] = cluster symbol, read-out: HTRF IC50 cluster
[4] = cluster symbol, cell line of CBA not given (LK35.2-hPD-L1 or 293T-hPD-L1), read-out: CBA IC50 cluster
[5] = cell binding assay, cell line not given, cluster symbol, read-out: CBA IC50 cluster

| Compound | IC50 [1, 3] [nM] | IC50 [2, 4] [nM] | IC50 ([1]; value given instead of cluster, read-out: HTRF IC50 value) [nM] | IC50 ([2]; cell binding assay, cell line not given, value given instead of cluster, read-out: CBA IC50 value) [nM] | IC50 [2, 5] [nM] |
| --- | --- | --- | --- | --- | --- |
| CCCC[C@H]1C(=O)N(C)[C@@H](CCCC)C(=O)N[C@@H](CCCNC(=N)N)C(=O)N[C@H](C(=O)NCC(N)=O)CSCC(=O)N[C@@H](Cc2ccccc2)C(=O)N(C)[C@@H](C)C(=O)N[C@@H](CC(N)=O)C(=O)N2CCC[C@H]2C(=O)N[C@@H](Cc2cnc[nH]2)C(=O)N[C@@H](CC(C)C)C(=O)N(C)CC(=O)N[C@@H](Cc2c[nH]c3ccc(Cl)cc23)C(=O)N[C@@H](CO)C(=O)N[C@@H](Cc2c[nH]c3ccc(Cl)cc23)C(=O)N1C [Example 1024] ({CH2CO}-F[NMeA]NPHL[Sar][Trp(5-Cl)]S[Trp(5-Cl)][NMeNle][NMeNle]RCG-NH2; thioether N-14) | > 30.5 | > 74.3 |  |  |  |
| CCCC[C@H]1C(=O)N(C)[C@@H](CCCC)C(=O)N[C@@H](CCCNC(=N)N)C(=O)N[C@H](C(=O)NCC(N)=O)CSCC(=O)N[C@@H](Cc2ccccc2)C(=O)N(C)[C@@H](C)C(=O)N[C@@H](CC(N)=O)C(=O)N2CCC[C@H]2C(=O)N[C@@H](Cc2cnc[nH]2)C(=O)N[C@@H](CC(C)C)C(=O)N(C)CC(=O)N[C@@H](Cc2c[nH]c3ccccc23)C(=O)N[C@@H](CCCCN)C(=O)N[C@@H](Cc2c[nH]c3ccccc23)C(=O)N1C [Example 1069] ({CH2CO}-F[NMeA]NPHL[Sar]WKW[NMeNle][NMeNle]RCG-NH2; thioether N-14) | 0.385 to 6.74 | 4.78 to 72.9 |  |  |  |
| CCCC[C@H]1C(=O)N[C@@H](CCCNC(=N)N)C(=O)N[C@H](C(=O)NCC(N)=O)CSCC(=O)N[C@@H](Cc2ccccc2)C(=O)N(C)[C@@H](C)C(=O)N[C@@H](CC(N)=O)C(=O)N2CCC[C@H]2C(=O)N[C@@H](Cc2cnc[nH]2)C(=O)N[C@@H](CC(C)C)C(=O)N(C)CC(=O)N[C@@H](Cc2c[nH]c3ccccc23)C(=O)N[C@@H](CO)C(=O)N[C@@H](Cc2c[nH]c3ccccc23)C(=O)N[C@@H](CNC(=O)C2CCC2)C(=O)N1C [Example 1011] ({CH2CO}-F[NMeA]NPHL[Sar]WSW[Dap](Cyclobutanecarbonyl)[NMeNle]RCG-NH2; thioether N-14) | > 30.5 | > 74.3 |  |  |  |
| CCCC[C@H]1C(=O)N(C)[C@@H](CCCC)C(=O)N[C@@H](CCCNC(=N)N)C(=O)N[C@H](C(=O)NCC(N)=O)CSCC(=O)N[C@@H](Cc2ccccc2)C(=O)N(C)[C@@H](C)C(=O)N[C@@H](CC(N)=O)C(=O)N2CCC[C@H]2C(=O)N[C@@H](Cc2cnc[nH]2)C(=O)N[C@@H](CC(C)C)C(=O)N(C)CC(=O)N[C@@H](Cc2ccc(-c3ccccc3)cc2)C(=O)N[C@@H](CO)C(=O)N[C@@H](Cc2c[nH]c3ccccc23)C(=O)N1C [Example 1007] ({CH2CO}-F[NMeA]NPHL[Sar][Bip]SW[NMeNle][NMeNle]RCG-NH2; thioether N-14) | > 30.5 | > 74.3 |  |  |  |
| CCCC[C@H]1C(=O)N(C)[C@@H](CCCC)C(=O)N[C@@H](CC(C)C)C(=O)N[C@H](C(=O)NCC(N)=O)CSCC(=O)N[C@@H](Cc2ccccc2)C(=O)N(C)[C@@H](C)C(=O)N[C@@H](CC(N)=O)C(=O)N2CCC[C@H]2C(=O)N[C@@H](Cc2cnc[nH]2)C(=O)N[C@@H](CC(C)C)C(=O)N(C)CC(=O)N[C@@H](Cc2c[nH]c3ccccc23)C(=O)N[C@@H](CO)C(=O)N[C@@H](Cc2c[nH]c3ccccc23)C(=O)N1C [Example 5017] ({CH2CO}-F[NMeA]NPHL[Sar]WSW[NMeNle][NMeNle]LCG-NH2; thioether N-14) |  |  | 11.3 | 12.9 |  |
| CCCC[C@@H]1C(=O)N(C)[C@H](CCCC)C(=O)N[C@@H](CCCN)C(=O)N[C@@H](C(=O)NCC(N)=O)CSCC(=O)N[C@@H](Cc2ccc(O)cc2)C(=O)N2CCCC2C(=O)N[C@H](CC(=O)O)C(=O)N2CCC[C@H]2C(=O)N[C@H](CN)C(=O)N[C@@H](CCC(=O)O)C(=O)N2CCCC2C(=O)N[C@H](Cc2c[nH]c3ccccc23)C(=O)N[C@@H](CCN)C(=O)N[C@@H](Cc2c[nH]c3ccccc23)C(=O)N1C (stereo partly shown) [Example 1214] ({CH2CO}-Y[ξP][dD]P[dDap]E[ξP][dW][Dab]W[dNMeNle][dNMeNle][Orn][dC]G-NH2; thioether N-14) | 6.76 to 30.3 | 4.78 to 72.9 |  |  |  |
| CCCC[C@H]1C(=O)N[C@@H](CCCNC(=N)N)C(=O)N[C@H](C(=O)NCC(N)=O)CSCC(=O)N[C@@H](Cc2ccccc2)C(=O)N(C)[C@@H](C)C(=O)N[C@@H](CC(N)=O)C(=O)N2CCC[C@H]2C(=O)N[C@@H](Cc2cnc[nH]2)C(=O)N[C@@H](CC(C)C)C(=O)N(C)CC(=O)N[C@@H](Cc2c[nH]c3ccccc23)C(=O)N[C@@H](CO)C(=O)N[C@@H](Cc2c[nH]c3ccccc23)C(=O)N(C)[C@@H](COCc2ccccc2)C(=O)N1C [Example 6013] ({CH2CO}-F[NMeA]NPHL[Sar]WSW[NMeS](Bn)[NMeNle]RCG-NH2; thioether N-14) | 6.76 to 30.3 |  |  |  | 4.78 to 72.9 |
| CCCC[C@H]1C(=O)N(C)[C@@H](CCSC)C(=O)N[C@@H](CCCNC(=N)N)C(=O)NC(C(=O)NCC(N)=O)CSCC(=O)N[C@@H](Cc2ccc(O)cc2)C(=O)N(C)[C@@H](C)C(=O)N[C@@H](CC(N)=O)C(=O)N2CCC[C@H]2C(=O)N[C@@H](CN)C(=O)N[C@@H](CC(C)C)C(=O)N2CCC[C@H]2C(=O)N[C@@H](Cc2c[nH]c3ccccc23)C(=O)N[C@@H](CO)C(=O)N[C@@H](Cc2c[nH]c3ccccc23)C(=O)N1C (stereo partly shown) [Example 9081] ({CH2CO}-Y[NMeA]NP[Dap]LPWSW[NMeNle][NMeM]R[ξC]G-NH2; thioether N-14) | 0.385 to 6.74 |  |  |  | 0.158 to 4.71 |
| CCCC[C@H]1C(=O)N(C)CC(=O)N[C@@H](CC(=O)O)C(=O)N[C@@H](C(C)C)C(=O)N(C)[C@@H](Cc2ccccc2)C(=O)N[C@@H](Cc2ccc(O)cc2)C(=O)N(C)CC(=O)N[C@@H](Cc2c[nH]c3ccccc23)C(=O)N[C@@H](Cc2ccc(O)cc2)C(=O)N[C@@H](CC(C)C)C(=O)N[C@H](C(=O)NCC(N)=O)CSCC(=O)N[C@@H](Cc2cscn2)C(=O)N(C)[C@@H](Cc2ccccc2)C(=O)N1C [Example 3092] ({CH2CO}-[Ala(4-thiazolyl)][NMeF][NMeNle][Sar]DV[NMeF]Y[Sar]WYLCG-NH2; thioether N-13) | > 30.5 | > 74.3 |  |  |  |
| CCCC[C@H]1C(=O)N(C)[C@@H](CCCC)C(=O)N[C@@H](CCCNC(=N)N)C(=O)N[C@H](C(=O)NCC(N)=O)CSCC(=O)N[C@@H](Cc2ccc(O)cc2)C(=O)N2CCC[C@H]2C(=O)N[C@@H](CC(N)=O)C(=O)N2CCC[C@H]2C(=O)N[C@@H](Cc2cnc[nH]2)C(=O)N[C@@H](CC(C)C)C(=O)N2C[C@@H](O)C[C@H]2C(=O)N[C@@H](Cc2c[nH]c3ccccc23)C(=O)N[C@@H](CO)C(=O)N[C@@H](Cc2c[nH]c3ccccc23)C(=O)N1C [Example 1148] ({CH2CO}-YPNPHL[cisHyp]WSW[NMeNle][NMeNle]RCG-NH2; thioether N-14) | 6.76 to 30.3 | 4.78 to 72.9 |  |  |  |
| CCCC[C@H]1C(=O)N(C)[C@@H](CCCC)C(=O)N[C@@H](CCCNC(=N)N)C(=O)NC(C(=O)NCC(N)=O)CSCC(=O)N[C@@H](Cc2ccc(O)cc2)C(=O)N(C)[C@@H](C)C(=O)N[C@@H](CC(N)=O)C(=O)N2CCC[C@H]2C(=O)N[C@@H](Cc2cnc[nH]2)C(=O)N[C@@H](CC(N)=O)C(=O)N2CCC[C@H]2C(=O)N[C@@H](Cc2c[nH]c3ccccc23)C(=O)N[C@@H](CO)C(=O)N[C@@H](Cc2c[nH]c3ccccc23)C(=O)N1C (stereo partly shown) [Example 9063] ({CH2CO}-Y[NMeA]NPHNPWSW[NMeNle][NMeNle]R[ξC]G-NH2; thioether N-14) | 0.385 to 6.74 |  |  |  | 0.158 to 4.71 |
| CCCC[C@H]1C(=O)N(C)[C@@H](CCCC)C(=O)N[C@@H](CCCNC(=N)N)C(=O)NC(C(=O)NCC(N)=O)CSCC(=O)N[C@@H](Cc2ccc(O)cc2)C(=O)N(C)[C@@H](CO)C(=O)N[C@@H](CC(N)=O)C(=O)N2CCC[C@H]2C(=O)N[C@@H](Cc2cnc[nH]2)C(=O)N[C@@H](CC(C)C)C(=O)N2CCC[C@H]2C(=O)N[C@@H](Cc2c[nH]c3ccccc23)C(=O)N[C@@H](CO)C(=O)N[C@@H](Cc2c[nH]c3ccccc23)C(=O)N1C (stereo partly shown) [Example 9038] ({CH2CO}-Y[NMeS]NPHLPWSW[NMeNle][NMeNle]R[ξC]G-NH2; thioether N-14) | 6.76 to 30.3 |  |  |  | 4.78 to 72.9 |
| CCCC[C@H]1C(=O)N(C)CC(=O)N[C@@H](CC(=O)O)C(=O)N[C@@H](C(C)C)C(=O)N(C)[C@@H](Cc2ccccc2)C(=O)N[C@@H](Cc2ccc(O)cc2)C(=O)N(C)CC(=O)N[C@@H](Cc2c[nH]c3ccccc23)C(=O)N[C@@H](Cc2ccc(O)cc2)C(=O)N[C@@H](CCC(=O)O)C(=O)N[C@H](C(=O)NCC(N)=O)CSCC(=O)N[C@@H](Cc2ccccc2)C(=O)N(C)[C@@H](Cc2ccccc2)C(=O)N1C [Example 3509] (HELM PEPTIDE1{[O=C(C[*:3])[*:2]].F.[meF].[CCCC[C@@H](C(=O)[*:2])N(C)[*:1]].[Sar].D.V.[meF].Y.[Sar].W.Y.E.C.G.[am]}$PEPTIDE1,PEPTIDE1,1:R3-14:R3$$$V2.0) | 6.76 to 30.3 |  |  |  | > 74.3 |
| CCCC[C@H]1C(=O)N(C)[C@@H](CCCC)C(=O)N[C@@H](CCCNC(=N)N)C(=O)N[C@H](C(=O)NCC(N)=O)CSCC(=O)N[C@@H](Cc2ccccc2)C(=O)N(C)[C@@H](C)C(=O)N[C@@H](CC(N)=O)C(=O)N2CCC[C@H]2C(=O)N[C@@H](Cc2cnc[nH]2)C(=O)N[C@@H](CC(C)C)C(=O)N(C)CC(=O)N[C@@H](Cc2c[nH]c3ccccc23)C(=O)N[C@@H](CN)C(=O)N[C@@H](Cc2c[nH]c3ccccc23)C(=O)N1C [Example 5002] ({CH2CO}-F[NMeA]NPHL[Sar]W[Dap]W[NMeNle][NMeNle]RCG-NH2; thioether N-14) | > 30.5 |  |  |  | > 74.3 |
